Data published in patent publication US12366579B2, “Sulfur-heterocycle exchange chemistry and uses thereof” (University of Virginia Patent Foundation, priority 2019, dated 2025).

Columns and labels:
EDC3 = EDC3 (Homo sapiens, UniProt Q96F86); test: Chemical proteomics analysis of EDC3 using EKT-231 and HHS-465; assay type: binding; conditions: FIG. 46B
From the text: FIGS. 46A and 46B: Inhibition of mRNA decapping protein 3 (EDC3) Y475 by EKT-231. FIG. 46A is a schematic drawing of the chemical structure of EKT-231. FIG. 46B is a series of graphs showing the chemical proteomics analysis of EDC3 using EKT-231 and HHS-465.
In addition, SuTEx fragment EKT231 (see FIG. 46A) modifies EDC3 at tyrosine 475.

purified DPP3 = target: T1, purified DPP3 (Homo sapiens, UniProt Q9NY33); test: DPP3 biochemical substrate assay (Arg-Arg β-naphthylamide peptidase assay)
T1 sequence (Q9NY33 1-737): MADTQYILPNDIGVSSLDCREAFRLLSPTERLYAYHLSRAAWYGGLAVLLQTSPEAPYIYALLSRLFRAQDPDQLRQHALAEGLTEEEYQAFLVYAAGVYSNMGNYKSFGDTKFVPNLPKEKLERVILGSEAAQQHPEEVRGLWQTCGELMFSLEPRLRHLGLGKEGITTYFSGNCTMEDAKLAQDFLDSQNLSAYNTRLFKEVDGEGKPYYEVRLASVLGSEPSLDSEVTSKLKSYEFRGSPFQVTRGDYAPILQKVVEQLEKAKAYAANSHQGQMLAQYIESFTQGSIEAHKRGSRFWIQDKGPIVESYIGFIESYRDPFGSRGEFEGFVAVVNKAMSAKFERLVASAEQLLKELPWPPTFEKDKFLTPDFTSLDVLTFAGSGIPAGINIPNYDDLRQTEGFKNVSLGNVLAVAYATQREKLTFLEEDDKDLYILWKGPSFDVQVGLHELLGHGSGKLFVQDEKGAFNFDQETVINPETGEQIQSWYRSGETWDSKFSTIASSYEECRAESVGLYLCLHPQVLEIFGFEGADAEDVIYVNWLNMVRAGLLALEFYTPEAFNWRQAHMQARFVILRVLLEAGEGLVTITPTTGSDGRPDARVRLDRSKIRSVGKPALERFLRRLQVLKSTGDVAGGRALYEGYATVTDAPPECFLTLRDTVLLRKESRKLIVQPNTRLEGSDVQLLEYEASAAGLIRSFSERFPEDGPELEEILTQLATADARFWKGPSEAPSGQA
Experimental: DPP3 Biochemical Substrate Assay
Substrate assays were performed using purified DPP3 protein diluted to 5 ng/μL in assay buffer. DPP3 samples (10 μl) were diluted to 85 μl with assay buffer and transferred to a black 96-well plate. Samples were treated with a 50× stock of SuTEx-fragment at indication concentration for 30 min at 37° C. A stock solution of DPP3 substrate (Arg-Arg β-naphthylamide trihydrochloride, 0.5 mM: Sigma-Aldrich. St, Louis, Missouri, United States of America) was diluted to 100 μM in assay buffer. Substrate solution (5 μl) was added to each sample. Samples were mixed briefly by shaking and reaction monitored in kinetic mode by measuring fluorescence at 450 nm for 10 min on a BMG Labtech CLARIOstar plate reader (BMG Labtech, Cary, North Carolina, United States of America).

YWHAE (Y49) = target: T2, YWHAE (Y49) (Homo sapiens, UniProt P62258); test: Competitive chemical proteomics of SuTEx fragments vs HHS-482, YWHAE site; assay type: binding; conditions: fragment 50 μM, 30 min, 37° C.
T2 construct: endogenous in cells; host or cells: DM93 melanoma cells, soluble proteome (lysate)
T2 sequence (P62258 whole entry, the tested form may be a part): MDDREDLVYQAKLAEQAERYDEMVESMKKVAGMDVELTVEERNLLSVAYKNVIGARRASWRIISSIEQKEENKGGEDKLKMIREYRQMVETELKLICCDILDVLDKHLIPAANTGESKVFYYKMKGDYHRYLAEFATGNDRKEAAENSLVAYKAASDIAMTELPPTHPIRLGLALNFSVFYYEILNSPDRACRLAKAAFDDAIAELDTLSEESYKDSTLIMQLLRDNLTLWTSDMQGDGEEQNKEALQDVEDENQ
Experimental: (§1) Heavy and light proteomes (432 μl of each) were diluted to 2.3 mg ml^−1 in PBS and sample aliquots (432 μl) were treated with SuTEx fragment at the indicated concentrations (5 μl, 100× stock in DMSO), mixed gently and incubated for 30 min at 37° C. Samples were then treated with HHS-482 (5 μL, 5 mM stock in DMSO) for 30 min at 37° C. Probe-modified proteomes were conjugated to desthiobiotin-PEG3-azide followed by enrichment of probe-modified peptides for nano-electrospray ionization-LC-MS/MS analyses as previously described^57.
The chemical proteomic method for functional tyrosine profiling^72 was tailored to investigate AG/LG effects on SuTEx fragment reactivity in complex proteomes. In brief, isotopically light and heavy soluble proteomes from DM93 melanoma cells cultured by stable isotopic labeling by amino acids in cell culture (SILAC^80) media were used for quantitative liquid chromatography-mass spectrometry (LC-MS) studies. […] Proteomes were digested with trypsin protease, HHS-482-modified peptides enriched by avidin chromatography and analyzed by high-resolution LC-MS/MS and bioinformatics as described hereinabove.
To evaluate substituent effects on proteome activity, reactivity profiles of each respective SuTEx fragment were compared across >1500 total distinct HHS-482-modified tyrosine sites from >650 detected proteins. […]

DPP3 Y417 = target: T3, DPP3 Y417 (Homo sapiens, UniProt Q9NY33); test: Quantitative LC-MS chemical proteomics of recombinant human DPP3-HEK293T soluble proteome; assay type: binding; conditions: 50 μM fragment, 37° C., 30 min
T3 construct: FLAG (C); host or cells: HEK293T, transient transfection; soluble proteome used unpurified
Experimental: Preparation of SILAC Proteomes for Liquid Chromatography-Tandem Mass Spectrometry ([…]) Analysis
as §1
Identification of peptides and proteins from tandem mass spectrometry analyses was accomplished using bioinformatics software and quality control criteria as previously described^57.

DM93 soluble proteomes = test: Proteome-wide competitive chemical proteomics of SuTEx fragments vs HHS-482; assay type: binding, human; conditions: fragment 50 μM, 30 min, 37° C.
Experimental: as §1
The chemical proteomic method for functional tyrosine profiling^72 was tailored to investigate AG/LG effects on SuTEx fragment reactivity in complex proteomes. In brief, isotopically light and heavy soluble proteomes from DM93 melanoma cells cultured by stable isotopic labeling by amino acids in cell culture (SILAC^80) media were used for quantitative liquid chromatography-mass spectrometry (LC-MS) studies. Light and heavy DM93 proteomes were treated with dimethyl sulfoxide (DMSO) vehicle or SuTEx fragment (50 μM, 30 min, 37° C.), respectively, followed by labeling with the tyrosine-reactive probe HHS-482 described hereinabove (50 μM, 30 min, 37° C.) and copper-catalyzed azide-alkyne cycloaddition (CuAAC) conjugation of a desthiobiotin-azide enrichment tag. Proteomes were digested with trypsin protease, HHS-482-modified peptides enriched by avidin chromatography and analyzed by high-resolution LC-MS/MS and bioinformatics as described hereinabove.
To evaluate substituent effects on proteome activity, reactivity profiles of each respective SuTEx fragment were compared across >1500 total distinct HHS-482-modified tyrosine sites from >650 detected proteins. Fragments were screened across independent biological replicates (n=2-3) and high-quality tyrosine site annotations were identified by detection in at least a single biological replicate from each fragment dataset, probe-specific enrichment (HHS-482 probe/DMSO SILAC ratio (SR)>5), and quality control confidence criteria of ≥300 Byonic score^31, […] protein false discovery rate (FDR), and ≤5 ppm mass accuracy in order to minimize the potential for false positives^72. SILAC ratios (SR) from competitive studies (Light-DMSO/Heavy-fragment) were used to identify fragment-competed tyrosine residues as sites showing >75% reduction in enrichment by HHS-482 compared with DMSO vehicle control (i.e. liganded tyrosines, SR>4). In total, 305 liganded tyrosines on 213 distinct proteins were identified, corresponding to ˜30% and ˜44% of total quantified tyrosines and proteins, respectively. […]

human DPP3 (hDPP3) = target: T4, human DPP3 (hDPP3) (Homo sapiens, UniProt Q9NY33); test: Gel-based competitive chemical proteomic screen with HHS-482, recombinant hDPP3-HEK293T soluble proteomes; assay type: binding; conditions: 50 μM fragment, 37° C., 30 min
T4 construct: FLAG (C); host or cells: HEK293T, transient transfection; soluble proteome used unpurified
T4 sequence (Q9NY33 1-737): T1 sequence (Q9NY33 1-737)
Experimental: Gel-Based Chemical Proteomic Assay
Cell pellets were lysed in PBS and fractionated (100,000×g, 45 min, 4° C.) to generate soluble and membrane fractions. Protein concentrations were determined using Bio-Rad DC protein assay (Bio-Rad Laboratories, Inc., Hercules, California, United States of America), and adjusted to 1 mgml^−1 in PBS. Proteome samples (49 μl aliquots) were treated with DMSO vehicle or indicated concentration of SuTEx fragment (1 μL, 50× stock in DMSO) for 30 min at 37° C. Samples were then treated with HHS-482 probe (1 μL, 2.5 mM stock in DMSO) for 30 min at 37° C. Probe labeled samples were conjugated to rhodamine-azide (1 μL, 1.25 mM stock; final concentration of 25 μM) by copper-catalyzed azide-alkyne cycloadditions (CuAAC) for 1 h at room temperature followed by SDS-PAGE and in-gel fluorescence scanning as previously described^57.

EDC3, sequence (Q96F86 whole entry): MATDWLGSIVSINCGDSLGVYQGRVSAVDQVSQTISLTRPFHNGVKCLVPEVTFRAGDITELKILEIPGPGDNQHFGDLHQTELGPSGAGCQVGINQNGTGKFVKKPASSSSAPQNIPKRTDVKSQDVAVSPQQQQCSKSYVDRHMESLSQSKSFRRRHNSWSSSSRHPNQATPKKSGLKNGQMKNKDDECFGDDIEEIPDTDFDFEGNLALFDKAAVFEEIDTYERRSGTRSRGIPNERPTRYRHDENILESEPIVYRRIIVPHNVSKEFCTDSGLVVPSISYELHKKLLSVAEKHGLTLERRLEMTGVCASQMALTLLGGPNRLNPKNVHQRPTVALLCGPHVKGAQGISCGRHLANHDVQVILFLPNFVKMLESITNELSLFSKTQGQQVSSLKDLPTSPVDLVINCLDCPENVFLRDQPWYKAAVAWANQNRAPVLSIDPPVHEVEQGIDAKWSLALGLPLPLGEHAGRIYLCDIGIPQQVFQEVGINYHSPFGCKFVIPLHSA

| Structure (SMILES) | tyrosine residue of EDC3 modified (EDC3) | fold difference in potency against DPP3, JWB142 vs SuFEx-3 (purified DPP3; JWB142 more potent than SuFEx counterpart) [fold] | IC50 (purified DPP3; fragment pretreatment 30 min at 37° C., n=3, read-out: IC50, blockade of DPP3 catalytic (peptidase) activity) [µM] | SILAC ratio (SR) at tyrosine competed site YWHAE Y49 (YWHAE (Y49)) | SILAC ratio (SR), DPP3 Y417 (DPP3 Y417) | blockade of HHS-482 labeling of DPP3 Y417 (site liganded) (DPP3 Y417) [%] | liganded tyrosine frequency (SR>4) (DM93 soluble proteomes) [%] | blockade of DPP3 probe (HHS-482) labeling (human DPP3 (hDPP3)) [%] |
| --- | --- | --- | --- | --- | --- | --- | --- | --- |
| N#Cc1ccc(S(=O)(=O)n2cc(-c3cccc(Cl)c3)nn2)cc1 [EKT231] | 475 | – | – | – | – | – | – | – |
| COc1ccc(-c2ncn(S(=O)(=O)c3ccc(-c4ccccc4)cc3)n2)cc1 [JWB142, 1-([1,1′-Biphenyl]-4-ylsulfonyl)-3-(4-methoxyphenyl)-1H-1,2,4-triazole] | – | > 10 | 17 | > 6 | 2.4 | ~50 | < 0.1 | ~50 |
